In patent publication US11505531B2 (SOUTHERN RESEARCH INSTITUTE, priority 2018, dated 2022):

Key:
TGF-β mediated by TSP-1 = assay: Cell-based assay of inhibition of TGF-β mediated by TSP-1; design: species or system human; conditions: for inhibition at 0.01 µM / inhibition at 0.1 µM / inhibition at 1 µM / IC50: Homo sapiens; for inhibition at 0.01 µM: At 10 nM; for inhibition at 0.01 µM / inhibition at 0.1 µM / inhibition at 1 µM: read-out: Inhibition of TGF-β mediated by TSP-1 cell-based assay at [Inhibitor]; for inhibition at 0.1 µM: At 100 nM; for IC50: assay not stated, given only for compounds tested in the cell-based assay
Protocol: To specifically assess activity of compounds in liver cell specific assays, two different assays were used. In the first, human hepatic stellate cells were incubated overnight in low serum media to condition the media with secreted latent […]. Purified TSP1 either preincubated with compounds or not will be added to cultures and then conditioned media harvested to assess TGF-β biological activity using the R&D Systems ELISA as above. Hepatic stellate cells will be purchased from commercial sources. Although hepatic stellate cells are the primary drivers of liver fibrosis, conditions which drive liver fibrosis can induce hepatocyte TSP-1 expression which can then have paracrine effects on controlling TGF-β activation in hepatic stellate cells. Furthermore, TGF-β can negatively impact hepatocyte regeneration following injury. Therefore, the ability of compounds to block TSP-1 activation of latent TGF-β will also be assessed in cultured primary human hepatocytes following the protocol described for the hepatic stellate cells. Similar approaches have successfully been used to screen compounds which inhibit human myeloma cell derived latent TGF-β activation by TSP-1 (Lu et al. (2016) Am J Pathol 186:678-690).

phospho-Smad 2 = assay: Phospho-Smad 2 staining of tibiae from mice injected with CAG MM cells; type: in vivo; conditions: 4 weeks of treatment
Protocol: Referring to FIG. 3A-C, at 4 weeks of treatment, tibiae from mice injected with CAG MM cells were fixed and stained with antibody to phosphor-Smad 2. Left panels are from 2 different saline treated mice and the right panels are from LSKL-treated mice. Pixels of brown staining were quantified in 4 fields per animal. 5-6 animals per group were analyzed. Data are the percent area exceeding the threshold for positive staining (FIG. 3A). […] P=0.004.

CAG human myeloma cells = assay: SCID-tibia MM model, tumor burden (bioluminescence, serum Ig kappa); type: in vivo, SCID mice; conditions: LSKL 30 mg/kg/day by subcutaneous osmotic pump, 2 and 4 weeks
Protocol: Referring to FIG. 2A and FIG. 2B, CAG human myeloma cells were injected into the intratibial marrow space of SCID mice. After 2 weeks, tumors were imaged by bioluminescence and serum 1 g kappa levels measured. Mice were randomized to equalize 1 g kappa levels. Osmotic pumps were implanted subcutaneously to deliver saline or LSKL peptide (30 mg/kg/day) (n=10/group). Tumors were imaged and serum 1 g kappa levels measured at 2 and 4 weeks of treatment. Data are means±SEM. Bioluminescence; *p=0.019 ANOVA, serum kappa; p=0.037, t-test.

[1] = cited from earlier work
CAG MM cells = assay: Phospho-Smad 2 immunoblot in TSP1-treated CAG MM cells; type: cell-based, human; conditions: 30 nM TSP1 for 6 hrs ± LSKL
Protocol: Referring to FIG. 4A, CAG MM cells were incubated with 30 nM TSP1 for 6 hrs±LSKL or SLLK. Cell lysates were immunoblotted for phosphor-Smad 2. Blots were stripped and reprobed for total Smad 2/3 and GAPDH. Results are normalized to GAPDH (untreated controls=1). LSKL reduces TSP1 induced treatment or luciferase activity in cells treated with active TGF-β (not shown).

CAG-heparanase MM cells = assay: PAI-1 promoter luciferase reporter assay of conditioned media of TSP1-treated CAG-heparanase MM cells; type: cell-based, human; conditions: cells treated with 67 nM TSP1
Protocol: Referring to FIG. 4B, CAG-heparanase MM cells were treated with 67 nM TSP1 and conditioned media were assessed for TGF-β activity using PAI-1 promoter luciferase reporter assay. There is ˜[…] TGF-β in the added TSP1 and LSKL blocks 80% of the CAG-heparanase MM cell generated TGF-β activity.

[2] = 30 mg/kg i.p., 3 times weekly, 15 weeks; cited from earlier work
MSCs = assay: Osteoblast differentiation by MSCs under osteogenic conditions (alkaline phosphatase staining, Runx2 RT-PCR); type: cell-based; conditions: osteogenic media, TSP1 10 nM + LSKL 25 μM, 20 days
Protocol: Referring to FIG. 1A, MSCs were grown to confluence in basal (control) media. Cells were treated with control growth media, osteogenic media, or osteogenic media with TGF-β (5 ng/mL) or stripped TSP1 (10 nM), TSP1+LSKL (25 μM), TSP1+SLLK (25 μM control peptide), or TSP1+anti-TGF-β (5 μg/mL). Cultures were fed daily for 20 days. Alkaline phosphatase staining is representative of triplicate wells.
Referring to FIG. 1B, cells were treated every 2 days for 20 days with MSC growth media (control) or osteogenic media with TGF-β (5 ng/mL) or TSP1 (10 nM)±daily treatment with 25 μM LSKL or SLLK peptides. RNA isolated from cells was used for RT-PCR analysis of Runx2 expression. Samples were run in duplicate and each experimental treatment in triplicate.

[3] = biological target: T1, TGF-β mediated by TSP-1 (purified human platelet TSP-1 + recombinant latent TGF-β1) (Homo sapiens, UniProt P07996); assay: In vitro ELISA assay: TSP-1 incubated with compound, then with recombinant latent TGF-β1; active TGF-β detected; type: biochemical; conditions: read-out: Inhibition of TGF-β mediated by TSP-1 in vitro Elisa assay at [Inhibitor]; for inhibition at 0.0001 µM: At 100 pM
T1 construct: purified human platelet TSP-1 was incubated with compounds; tissue R&D Systems (latent TGF-β1 only); host or cells: human platelets (TSP-1)
Protocol: For initial screening, an ELISA-based screening assay was used in which purified human platelet TSP-1 was incubated with compounds and then incubated with recombinant latent TGF-β1 (purchased from R&D Systems). Activity is measured in a commercially available ELISA which detects only active TGF-β (R &D Systems). Activity in the presence of compounds is compared to activity in TSP-1+latent TGF-β samples without inhibitory compounds (Lu et al. (2016) Am J Pathol 186:678-690).

T1 sequence (P07996 19-1170): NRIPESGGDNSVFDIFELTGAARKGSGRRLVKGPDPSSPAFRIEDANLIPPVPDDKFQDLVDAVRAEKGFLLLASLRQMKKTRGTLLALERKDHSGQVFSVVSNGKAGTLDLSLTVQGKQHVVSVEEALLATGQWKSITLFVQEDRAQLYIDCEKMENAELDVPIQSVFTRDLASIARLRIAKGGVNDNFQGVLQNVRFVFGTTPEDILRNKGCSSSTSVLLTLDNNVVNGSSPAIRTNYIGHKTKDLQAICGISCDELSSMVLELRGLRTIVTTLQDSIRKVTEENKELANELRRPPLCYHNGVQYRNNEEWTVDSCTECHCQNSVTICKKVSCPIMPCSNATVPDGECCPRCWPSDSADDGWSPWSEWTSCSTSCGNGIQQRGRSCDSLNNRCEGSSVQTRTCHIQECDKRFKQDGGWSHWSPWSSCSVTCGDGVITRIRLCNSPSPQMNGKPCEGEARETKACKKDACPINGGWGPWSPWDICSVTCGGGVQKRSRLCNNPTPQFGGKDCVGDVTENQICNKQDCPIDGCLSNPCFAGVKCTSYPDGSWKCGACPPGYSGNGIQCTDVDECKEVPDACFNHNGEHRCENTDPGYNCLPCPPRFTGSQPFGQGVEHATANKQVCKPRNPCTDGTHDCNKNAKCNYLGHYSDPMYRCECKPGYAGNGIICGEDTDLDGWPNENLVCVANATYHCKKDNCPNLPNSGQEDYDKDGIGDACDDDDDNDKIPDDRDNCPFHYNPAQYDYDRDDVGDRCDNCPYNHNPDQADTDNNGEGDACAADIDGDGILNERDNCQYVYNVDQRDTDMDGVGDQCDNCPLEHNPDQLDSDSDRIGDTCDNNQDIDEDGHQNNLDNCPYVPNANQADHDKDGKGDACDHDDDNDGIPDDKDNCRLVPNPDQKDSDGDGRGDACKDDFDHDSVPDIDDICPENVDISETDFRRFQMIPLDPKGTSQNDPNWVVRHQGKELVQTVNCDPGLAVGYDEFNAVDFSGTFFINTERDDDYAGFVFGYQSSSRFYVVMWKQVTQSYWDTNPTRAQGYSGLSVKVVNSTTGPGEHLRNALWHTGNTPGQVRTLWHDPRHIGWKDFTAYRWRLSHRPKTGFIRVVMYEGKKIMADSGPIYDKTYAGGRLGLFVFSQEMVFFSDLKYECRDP

Compound | inhibition at 0.01 µM (TGF-β mediated by TSP-1) [%] | inhibition at 0.1 µM (TGF-β mediated by TSP-1) [%] | inhibition at 1 µM (TGF-β mediated by TSP-1) [%] | IC50 (TGF-β mediated by TSP-1) [nM] | further results
CC1(C)NC(=O)[C@H](Cc2ccc(N)cc2)NC1=O [Compound 4, (S)-6-(4-aminobenzyl)-3,3-dimethylpiperazine-2,5-dione] | 80 | 78 | 83 | 1 | 
Nc1ccc(C[C@@H]2NC(=O)C3(CCC3)NC2=O)cc1 [Compound 8, (S)-7-(4-aminobenzyl)-5,8-diazaspiro[3.5]nonane-6,9-dione] | 62 | 89 | 92 | 4 | 
Nc1ccc(C[C@@H]2NC(=O)C3(CCCCC3)NC2=O)cc1 [Compound 15, (S)-3-(4-aminobenzyl)-1,4-diazaspiro[5.5]undecane-2,5-dione] | 49 | 85 | 94 |  | 
LSKL |  |  |  |  | phospho-Smad 2 in the bone marrow (phospho-Smad 2): Reduces Phospho-Smad 2; MM tumor burden (CAG human myeloma cells): Reduces MM Tumor Burden; plasma stability half-life [1]: 2.1 min; TGF-β activity (phospho-Smad 2) in CAG MM cells (CAG MM cells): Reduces TGF-B Activity; block of CAG-heparanase MM cell generated TGF-β activity (CAG-heparanase MM cells): 80%; necropsy findings after chronic treatment [2]: no inflammation, no tumors in all major organs, and no impairment of wound healing; osteoblast differentiation by MSCs (MSCs): Increases Osteoblast Differentiation
NCCC[C@@H]1NC(=O)C2(CCCC2)NC1=O [Compound 14, (S)-8-(3-aminopropyl)-6,9-diazaspiro[4.5]decane-7,10-dione] | 54 | 85 | 90 |  | 
NC(=O)c1ccc(C[C@@H]2NC(=O)C3(CCCC3)NC2=O)cc1 [Compound 13, (S)-4-((7,10-dioxo-6,9-diazaspiro[4.5]decan-8-yl)methyl)benzamide] | 8 | 24.6 | 19.6 |  | 
NC(=O)c1ccc(C[C@@H]2NC(=O)CNC2=O)cc1 [Compound 12, (S)-4-((3,6-dioxopiperazin-2-yl)methyl)benzamide] | 40 | 65.6 | 68 |  | 
CC1(C)NC(=O)[C@H](CCCCN)NC1=O [Compound 2, (S)-6-(4-aminobutyl)-3,3-dimethylpiperazine-2,5-dione] | 38 | 71 | 76 |  | inhibition at 10 pM [3]: 73%; inhibition at 50 pM [3]: 91%; inhibition at 0.0001 µM [3]: 89%
NCCCC[C@@H]1NC(=O)C2(CCCC2)NC1=O [Compound 7] | 72 | 89 | 92 | 0.85 | 
Nc1ccc(C[C@@H]2NC(=O)C3(CCCC3)NC2=O)cc1 [Compound 9, (S)-8-(4-aminobenzyl)-6,9-diazaspiro[4.5]decane-7,10-dione] | 40 | 92 | > 100 | 11 | 
CC1(C)NC(=O)[C@H](Cc2cccc(CN)c2)NC1=O [Compound 6] | 75 | 96 | 97 | 1 | 
CC1(C)NC(=O)[C@H](Cc2ccc(C(N)=O)cc2)NC1=O [Compound 11, (S)-4-((5,5-dimethyl-3,6-dioxopiperazin-2-yl)methyl)benzamide] | 25 | 39 | 40 |  | 
NCCCC[C@@H]1NC(=O)CNC1=O [Compound 1, (S)-3-(4-aminobutyl)piperazine-2,5-dione] | 38 | 59 | 74.5 |  | inhibition at 10 pM [3]: -67%; inhibition at 50 pM [3]: -4%; inhibition at 0.0001 µM [3]: 37%
CC1(C)NC(=O)[C@@H](CCCCN)NC1=O [Compound 10, (R)-6-(4-aminobutyl)-3,3-dimethylpiperazine-2,5-dione] |  |  |  |  | Inhibition of TGF-β mediated by TSP-1 cell-based assay (result in words) (TGF-β mediated by TSP-1): Inactive
Nc1ccc(C[C@@H]2NC(=O)CNC2=O)cc1 [Compound 3, (S)-3-(4-aminobenzyl)piperazine-2,5-dione] | 13 | 32 | 75 |  | inhibition at 10 pM [3]: 66%; inhibition at 50 pM [3]: 68%; inhibition at 0.0001 µM [3]: 90%
